Results taken from patent US20060008891A1, “Cathepsin G-related peptides as modulators of formylpeptide receptors (FPR)” (The Government of USA as repersented by the Secretary, …, priority 2004, published 2006).
Several values for one entry are separate records, joined by “and”; a condition that tells them apart may be missing. Identical values can stand only once.

How the values were obtained:
FPR = target: T1, FPR (Homo sapiens, UniProt P21462); assay: Chemotaxis assay, RBL cells transfected with FPR (ETFR cells); format: cell-based
T1 construct: expressed in transfected cells; host or cells: Rat basophilic leukemia (RBL) cells, stably transfected (ETFR cells); gift of H. Ali and R. Snyderman, Duke University
T1 sequence (P21462 1-350): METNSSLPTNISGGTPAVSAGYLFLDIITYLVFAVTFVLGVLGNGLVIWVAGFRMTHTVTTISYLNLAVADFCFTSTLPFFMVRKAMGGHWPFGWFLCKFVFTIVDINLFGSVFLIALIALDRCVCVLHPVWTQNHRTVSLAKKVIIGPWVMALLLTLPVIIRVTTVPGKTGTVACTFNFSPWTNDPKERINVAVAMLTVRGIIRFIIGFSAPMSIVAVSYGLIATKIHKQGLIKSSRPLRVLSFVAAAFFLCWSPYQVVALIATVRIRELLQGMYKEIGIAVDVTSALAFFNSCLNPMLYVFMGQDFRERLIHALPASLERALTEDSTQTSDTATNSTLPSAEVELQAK
Description: Human PBMC were isolated from leukopacks obtained through the courtesy of Transfusion Medicine Department, National Institutes of Health Clinical Center (Bethesda, Md.) by Ficoll-Hypaque density gradient centrifugation. Monocytes were purified from human PBMC by Percoll gradient to yield>90% pure preparations. […] H. Ali and R. Snyderman, Duke University (Durham, N.C.) and maintained in the presence of 0.8 mg/ml geneticin (G418, Life Technologies, Rockville, Md.) in DMEM supplemented with 10% FCS. B. Chemotaxis assay Migration of phagocytes and ETFR cells was assessed using a 48-well microchemotaxis chamber (Neuroprobe, Cabin John, Md.) as previously described (Hu et al. (2001) J Leukoc Biol 70 15512). Briefly, different concentrations of stimulants were placed in the wells of the lower compartment of the chamber, and 50 μl cells (1.5×10^6 cells/ml for monocyte and neutrophil, 1×10^6 ETFR cells/ml) were added to the wells of the upper compartment. The lower and upper compartments were separated by either a 5-μm (for monocyte) or a 10-μm pore size, collagen-coated (for ETFR cells) polycarbonate filter (Osmonics, Livermore, Calif.). After incubation at 37° C. in humidified air with 5% CO2 (60 min for neutrophils, 90 min for monocytes, 4.5 h for ETFR cells), the filter was removed and stained, and the cells migrating across the filter were counted with light microscopy. The results are presented as the mean number of cells (±SD) in three high power fields (HPFs). For analysis of cross-desensitization, cells were pretreated with indicated reagents for 1 h at 37° C. After thorough washing with cold medium (RPMI 1640, 1% BSA), the cells were resuspended and assayed. To measure the effect of various signaling inhibitors, unless otherwise indicated, the cells were pre-incubated at 37° C. for 60 min with the inhibitors, and were then added to the upper wells of the chemotaxis chamber.

PKCζ = PKCζ translocation in ETFR cells (confocal microscopy); format: cell-based, rat; settings: 100 nM fMLF, 10 μg/ml CaG or PMA 500 nM, 37° C. 10 min
Description: (§1) ETFR cells were seeded on coverslips and cultured overnight in DMEM containing 1% FCS at 37° C. After further culture in FCS-free DMEM for 3 h, cells were treated with stimulants for indicated time periods at 37° C. and were then fixed in 4% paraformaldehyde for 5 min at room temperature. The cells were permeabilized with 0.2% Tween 20 for 30 min at 4° C. and the reaction was blocked with 5% goat normal serum for 15 min at room temperature. The rabbit anti-PKCα/β, δ, and ξ, antibodies (1:1000 in DPBS) were applied separately for 1 h at room temperature. After three rinses with DPBS, the cells were stained with FITC-labeled goat anti-rabbit secondary antibody (PharMingen, 1:1000 in DPBS) for 1 h at room temperature. The coverslips were mounted with an anti-fade, water-based mounting medium with Propidium Iodide (PI) (Vector Lab, Burlingamem, Calif.) and analyzed under a laser scanning confocal fluorescence microscope (Zeiss LSM510 NLO Meta, Jena, Germany). Excitation wavelengths 488 (for FITC) and 568 (for PI) nm were used to generate fluorescence emission in green and red, respectively.

p38 MAPK = assay: Phosphorylation of p38 MAPK in ETFR cells (Western blot); format: cell-based, rat
Description: (§2) ETFR cells were plated in Petri dishes and cultured in DMEM at 37° C. in humidified 5% CO2 atmosphere for 48 h. After further culture in serum-free DMEM overnight, the cells were treated with stimulants for indicated time periods. The reaction was stopped by adding 1 ml ice-cold PBS, and the cells were lysed in 1×SDS lysis buffer (62.5 mM Tris-HCl, 2% w/v SDS, 10% glycerol, 50 mM DTT, pH 6.8) and harvested into tubes for sonication. Proteins (50 μg for each sample) were resolved by SDS-PAGE and transferred onto nitrocellulose membranes (Bio-Rad, Hercules, Calif.). The membranes were blocked for 2 h at room temperature in 3% non-fat milk prepared in Tris-buffered saline-T (10 mM Tris-HCl, pH 7.5, 150 mM NaCl, 0.1% Tween 20) and probed with anti-p-ERK1/2, p-p38 MAPK, or p-Akt (1:1000) at room temperature for 1-2 h or at 4° C. overnight. The membranes were then washed and incubated with horseradish peroxidase-conjugated secondary antibodies diluted in Tris-buffered saline-T for 1 h at room temperature. The immune complexes on the membranes were visualized using ECL reagents. Total ERK1/2, p38 MAPK, and Akt were visualized by stripping the same membrane and probing with antibodies against total ERK1/2, p38 MAPK, and Akt.

ERK1/2 = assay: Phosphorylation of ERK1/2 in ETFR cells (Western blot); format: cell-based, rat
Description: as §2

PKCδ = PKCδ translocation in ETFR cells; format: cell-based, rat; settings: 100 nM fMLF, 10 μg/ml CaG or PMA 500 nM, 37° C. 10 min
Description: as §1, with “The cells were permeabilized with 0.2% Tween 20 for 30 min at 4° C. and the reaction was blocked with 5% goat normal serum for 15 min at room temperature.” left out, “Germany).” for “Germany). Excitation wavelengths 488 (for FITC) and 568 (for PI) nm were used to generate fluorescence emission in green and red, respectively.”

concentration range potently chemotactic (FPR; ETFR cells): 4 to 400 nM
optimal concentration to induce ETFR cell migration (FPR; ETFR cells): 5 µg/mL
concentration required to elicit optimal cell migration (FPR; FPR-expressing cells, cell type not specified): 5-10 μg/ml and 200-400 nM
Substance: CaG: Cathepsin G, serine protease purified from neutrophil granules, purchased from Athens Research & Technology
chemotactic response of ETFR cells (FPR; ETFR cells): marked and dose-dependent chemotactic response
translocation of PKCζ (PKCζ): a substantial proportion of PKCξ translocated to the cell membrane region
time to activation of p38 MAPK (p38 MAPK): 1 to 5 min
time to activation of ERK1/2 (ERK1/2; ETFR cells): 1 to 5 min
delay to reach maximal activity (MAPK phosphorylation) as compared with fMLF (ERK1/2; FPR transfected cells): 10 to 15 min
translocation of PKCδ (PKCδ): did not induce translocation of PKCδ
